Results taken from paper PMC8370248, “Key Metabolic Enzymes Involved in Remdesivir Activation in Human Lung Cells” (Antimicrobial Agents and Chemotherapy, 2021).

Target: T1, CatA (Homo sapiens, UniProt P10619)
T1 sequence (P10619 29-326 limits assumed): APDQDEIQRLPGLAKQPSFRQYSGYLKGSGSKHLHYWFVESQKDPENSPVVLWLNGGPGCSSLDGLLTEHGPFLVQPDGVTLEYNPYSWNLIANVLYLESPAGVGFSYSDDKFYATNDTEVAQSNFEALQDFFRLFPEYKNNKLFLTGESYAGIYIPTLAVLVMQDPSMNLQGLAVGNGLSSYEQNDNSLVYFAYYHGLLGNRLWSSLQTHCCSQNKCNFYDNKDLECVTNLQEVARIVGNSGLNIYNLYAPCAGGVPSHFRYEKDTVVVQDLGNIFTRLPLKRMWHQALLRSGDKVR
T1 sequence (P10619 327-480 limits assumed): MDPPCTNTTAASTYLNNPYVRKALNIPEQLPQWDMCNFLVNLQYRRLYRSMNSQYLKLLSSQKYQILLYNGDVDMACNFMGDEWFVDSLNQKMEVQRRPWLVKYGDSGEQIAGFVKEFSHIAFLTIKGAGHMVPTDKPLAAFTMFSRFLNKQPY
Assay: CatA-catalyzed hydrolysis of RDV and control (substrate disappearance, LC-MS)
Protocol: The catalytic activity of carboxylesterase 1b (CES1b), carboxylesterase 1c (CES1c), CES2, and CatA toward RDV hydrolysis was measured using protein-enriched subcellular fraction (CES isozymes) or recombinant proteins (CatA). The reaction rates were determined by monitoring the disappearance of RDV using a liquid chromatography-mass spectrometry (LC-MS) method.
Following protein precipitation and centrifugation, 150 μl of supernatant was dried down and reconstituted with 250 μl water. […] Three experiments were conducted with two replicates in each experiment, and data are reported as averages from the three experiments.
In all studies apart from those with CES1 and CatA with enzyme inhibitors, samples (10-μl aliquots) were injected with a Thermo Scientific autosampler. The LC instrumentation consisted of a Thermo Scientific Dionex UltiMate 3000 RS pump, and the LC column was a Waters Acquity UPLC BEH C18 (1.7 μm particle size, 2.1 by 50 mm). Mobile phases A and B were water 99.9% (vol/vol) containing 0.1% (vol/vol) formic acid, and acetonitrile 99.9% (vol/vol) containing 0.1% (vol/vol) formic acid, respectively, pumped at 0.2 ml/minute. Elution was achieved by a series of linear gradients over 2.33 min followed by reequilibration for 2.57 min. The MS instrument was a Thermo Q Exactive Hybrid Quadrupole-Orbitrap operating in positive or negative ionization mode as appropriate. This was calibrated on a weekly basis, and data were processed with GMSU 8.4.66 software by Gubbs Inc. (Alpharetta, GA). Mass tolerance of 5 ppm was used.

How did the “Activity for amidate ester cleavage, CatA” value (1 μM substrate, 5 nM CatA, pH 6.5, 37°C) turn out when `CCC(CC)COC(=O)[C@H](C)N[P@](=O)(OC[C@H]1O[C@@](C#N)(c2ccc3c(N)ncnn23)[C@H](O)[C@@H]1O)Oc1ccccc1` [RDV, Remdesivir] was run?
The value was 74 ± 32 nmol/min/mg.

And the “CatA hydrolysis rate relative to TAF” value (fold lower than hydrolysis rate of TAF)?
Its value is 3.4 fold.

What about the half-life at 1 μM (human, recombinant CatA (activated with CatL), pH 6.5) of the same compound?
Its half-life at 1 μM is 43 min.
